# In ChEMBL document CHEMBL2429841, “Effect of incorporating a thiophene tail in the scaffold of acetazolamide on the inhibition of human carbonic anhydrase isoforms I, II, IX and XII” (Bioorg Med Chem Lett, 2013):
# How the values were obtained:
# [1] = target: Carbonic anhydrase 12 (Homo sapiens, UniProt O43570)
# Description: Inhibition of human carbonic anhydrase-12 by stopped flow CO2 hydrase assay
# [2] = target: Carbonic anhydrase 9 (Homo sapiens, UniProt Q16790); test: Inhibition of human carbonic anhydrase-9 by stopped flow CO2 hydrase assay
# Chain of Carbonic anhydrase 12 (O43570 whole entry): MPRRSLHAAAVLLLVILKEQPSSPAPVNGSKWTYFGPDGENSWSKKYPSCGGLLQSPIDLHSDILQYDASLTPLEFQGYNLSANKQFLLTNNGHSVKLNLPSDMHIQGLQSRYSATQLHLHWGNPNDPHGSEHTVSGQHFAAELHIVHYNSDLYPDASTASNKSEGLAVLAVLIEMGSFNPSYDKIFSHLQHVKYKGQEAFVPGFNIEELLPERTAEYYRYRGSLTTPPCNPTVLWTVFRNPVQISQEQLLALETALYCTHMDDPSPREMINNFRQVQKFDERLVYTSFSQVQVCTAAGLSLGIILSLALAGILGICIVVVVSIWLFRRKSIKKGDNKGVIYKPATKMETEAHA
Ki [1],Ki [2],Structure (SMILES)
21 nM,19 nM,NS(=O)(=O)c1ccc(NC(=O)Cc2cccs2)cc1
71 nM,84 nM,NS(=O)(=O)c1ccc(NC(=O)Cc2ccccc2)cc1

Structure (SMILES),Ki [1],Ki [2]
CCC[C@H](C(=O)Nc1ccc(S(N)(=O)=O)cc1)C(C)(C)C,78 nM,96 nM
